The pIC50 is −log10 of the IC50, conventionally taken in molar units.

This experiment concerns the target PRMT5/MEP50 (Homo sapiens (Human), UniProt O14744). As to the kind of experiment: PRMT5 Biochemical Assay (PRMT5/MEP50 enzyme assay on peptide substrate, 3H-SAM Flashplate). An excerpt:
S-adenosylmethionine (SAM), S-adenosylhomocysteine (SAH), bicine, KCl, Tween20, dimethylsulfoxide (DMSO), bovine skin gelatin (BSG), and Tris(2-carboxyethyl)phosphine hydrochloride solution (TCEP) were purchased from Sigma-Aldrich at the highest level of purity possible. ^3H-SAM was purchase from American Radiolabeled Chemicals with a specific activity of 80 Ci/mmol. 384-well streptavidin Flashplates were purchased from PerkinElmer.
Peptide representative of human histone H4 residues 1-15 was synthesized with a C-terminal linker-affinity tag motif and a C-terminal amide cap by 21st Century Biochemicals. The peptide was high high-performance liquid chromatography (HPLC) purified to greater than 95% purity and confirmed by liquid chromatography mass spectrometry (LC-MS). The sequence was Ac-[…][K-Biot]-amide (SEQ ID NO.:3).
Molecular Biology: Full-length human PRMT5 (NM_006109.3) transcript variant 1 clone was amplified from a fetal brain cDNA library, incorporating flanking 5′ sequence encoding a FLAG tag ([…]) (SEQ ID NO.:4) fused directly to Ala 2 of PRMT5. Full-length human MEP50 (NM_024102) clone was amplified from a human testis cDNA library incorporating a 5′ sequence encoding a 6-histidine tag (MHHHHHH) (SEQ ID NO.:5) fused directly to Arg 2 of MEP50. The amplified genes were sublconed into pENTR/D/TEV (Life Technologies) and subsequently transferred by Gateway™ attL×attR recombination to pDEST8 baculvirus expression vector (Life Technologies).
Recombinant baculovirus and Baculovirus-Infected Insect Cells (BIIC) were generated according to Bac-to-Bac kit instructions (Life Technologies) and Wasilko, 2006, respectively. Protein over-expression was accomplished by infecting exponentially growing Spodoptera frugiperda (SF9) cell culture at 1.2×10^6 cell/ml with a 5000 fold dilution of BIIC stock. Infections were carried out at 27° C. for 72 hours, harvested by centrifugation, and stored at −80° C. for purification.
Flag-PRMT5/6His-MeP50 was eluted with 300 mM Imidazole in the same buffer. The purity of recovered protein was 87%. Reference: Wasilko, D. J. and S. E. Lee: “TIPS: titerless infected-cells preservation and scale-up” Bioprocess J., 5 (2006), pp. 29-32.
General Procedure for PRMT5/MEP50 Enzyme Assays on Peptide Substrates.
The assays were all performed in a buffer consisting of 20 mM Bicine (pH=7.6), 1 mM TCEP, 0.005% BSG, and 0.002% Tween20, prepared on the day of use. Compounds in 100% DMSO (1 ul) were spotted into a polypropylene 384-well V-bottom plates (Greiner) using a Platemate Plus outfitted with a 384-channel head (Thermo Scientific). DMSO (1 ul) was added to Columns 11, 12, 23, 24, rows A-H for the maximum signal control and 1 ul of SAH, a known product and inhibitor of PRMT5/MEP50, was added to columns 11, 12, 23, 24, rows I-P for the minimum signal control. A cocktail (40 ul) containing the PRMT5/MEP50 enzyme and the peptide was added by Multidrop Combi (Thermo-Fisher). The compounds were allowed to incubate with PRMT5/MEP50 for 30 min at 25 degrees Celsius, then a cocktail (10 ul) containing ^3H-SAM was added to initiate the reaction (final volume=51 ul). The final concentrations of the components were as follows: PRMT5/MEP50 was 4 nM, ^3H-SAM was 75 nM, peptide was 40 nM, SAH in the minimum signal control wells was 100 uM, and the DMSO concentration was 1%. The assays were stopped by the addition of non-radioactive SAM (10 ul) to a final concentration of 600 uM, which dilutes the ^3H-SAM to a level where its incorporation into the peptide substrate is no longer detectable. 50 ul of the reaction in the 384-well polypropylene plate was then transferred to a 384-well Flashplate and the biotinylated peptides were allowed to bind to the streptavidin surface for at least 1 hour before being washed three times with 0.1% Tween20 in a Biotek ELx405 plate washer. […]

SMILES strings stand for the structures. pIC50: −log10 of the molar value.

Sequence of PRMT5/MEP50 (O14744 other isoform, or with tags, fused parts or gaps): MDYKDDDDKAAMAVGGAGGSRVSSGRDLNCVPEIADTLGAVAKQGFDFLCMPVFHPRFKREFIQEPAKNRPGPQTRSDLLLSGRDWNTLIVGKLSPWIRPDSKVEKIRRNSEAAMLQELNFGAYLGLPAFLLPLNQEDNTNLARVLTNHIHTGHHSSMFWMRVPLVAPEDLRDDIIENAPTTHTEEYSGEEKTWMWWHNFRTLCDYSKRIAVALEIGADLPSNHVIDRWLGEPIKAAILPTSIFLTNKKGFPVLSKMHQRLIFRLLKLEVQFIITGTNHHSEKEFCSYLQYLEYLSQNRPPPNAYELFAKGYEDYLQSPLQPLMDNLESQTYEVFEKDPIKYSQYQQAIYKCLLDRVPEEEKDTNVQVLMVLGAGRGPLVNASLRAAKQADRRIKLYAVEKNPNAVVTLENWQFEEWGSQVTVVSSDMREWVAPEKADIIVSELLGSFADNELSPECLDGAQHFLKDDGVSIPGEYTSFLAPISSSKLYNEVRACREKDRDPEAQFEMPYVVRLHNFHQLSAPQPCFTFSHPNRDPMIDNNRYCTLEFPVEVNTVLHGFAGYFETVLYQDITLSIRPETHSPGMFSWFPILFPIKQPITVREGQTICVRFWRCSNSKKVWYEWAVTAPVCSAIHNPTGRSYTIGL
Sequence of PRMT5/MEP50 (Q9BQA1 other isoform, or with tags, fused parts or gaps partner): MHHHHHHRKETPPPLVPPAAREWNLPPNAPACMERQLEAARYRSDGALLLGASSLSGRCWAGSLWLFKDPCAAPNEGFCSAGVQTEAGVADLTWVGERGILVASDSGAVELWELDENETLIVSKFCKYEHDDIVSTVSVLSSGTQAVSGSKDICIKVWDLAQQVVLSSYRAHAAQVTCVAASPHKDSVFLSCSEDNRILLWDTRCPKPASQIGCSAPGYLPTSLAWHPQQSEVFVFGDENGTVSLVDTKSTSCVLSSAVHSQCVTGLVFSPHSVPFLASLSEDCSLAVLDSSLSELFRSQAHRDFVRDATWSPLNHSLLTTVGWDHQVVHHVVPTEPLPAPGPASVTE

In the case of `OC(COc1cccc(-c2ncc3ccn(C4CCNCC4)c3n2)c1)CN1CCc2ccccc2C1` (stereo not shown) [Compound 253], the pIC50 is more than 7.00.

Regarding `OC(COC1CCCNC1)CN1CCc2ccccc2C1` (stereo not shown) [Compound 297], the pIC50 is less than 4.40.

Turning to `CN(CC(O)CN1CCc2ccccc2C1)c1cccc(CNC2CCOCC2)c1` (stereo not shown) [Compound 116], the pIC50 is more than 7.00.

For the molecule `CC(=O)N1CCC(n2ccc3cnc(-c4ccnc(NCC(O)CN5CCc6ccccc6C5)c4)nc32)CC1` (stereo not shown) [Compound 256], the pIC50 is more than 7.00.

For `COc1ccc(Cn2nccc2-c2ccc(OC[C@H](O)CN3CCc4ccccc4C3)cc2)cc1` [Compound 37], the negative logarithm of the IC50 (pIC50) is 5.00 to 6.00.

On to `O[C@H](COc1cccc(-c2cccc3cccnc23)c1)CN1CCc2ccccc2C1` [Compound 258, (S)-1-(3,4-dihydroisoquinolin-2(1H)-yl)-3-(3-(quinolin-8-yl)phenoxy)propan-2-ol], for which the pIC50 was 6.00 to 7.00.

Turning to `O[C@H](COc1cccc(CNC2CCCC2)c1)CN1CCc2ccccc2C1` [Compound 22], the pIC50 is 6.00 to 7.00.

On to `O=C(Cn1ccc2cnc(-c3ccnc(NCC(O)CN4CCc5ccccc5C4)c3)nc21)N1CCOCC1` (stereo not shown) [Compound 234, 2-(2-(2-((3-(3,4-dihydroisoquinolin-2(1H)-yl)-2-hydroxypropyl)amino)pyridin-4-yl)-7H-pyrrolo[2,3-d]pyrimidin-7-yl)-1-morpholinoethanone], for which the pIC50 is more than 7.00.

In the case of `OC(COc1cccc(-c2ccc3ncsc3c2)c1)CN1CCc2ccccc2C1` (stereo not shown) [Compound 123, 1-(3-(benzo[d]thiazol-6-yl)phenoxy)-3-(3,4-dihydroisoquinolin-2(1H)-yl)propan-2-ol], the negative-log IC50 (pIC50) is 6.00 to 7.00.

On to `Cn1cc2ccc(-c3cccc(NCC(O)CN4CCc5ccccc5C4)c3)nc2n1` (stereo not shown) [Compound 261], for which the negative logarithm of the IC50 (pIC50) was more than 7.00.

Regarding `Cn1cnc2ccc(-c3cccc(OCC(O)CN4CCc5ccccc5C4Cc4ccccc4)c3)cc21` (stereo not shown) [Compound 143], the pIC50 is less than 4.40.

On to `CN1CCC(OCC(O)CN2CCc3ccccc3C2)C1` (stereo not shown) [Compound 307], for which the pIC50 is less than 4.40.

On to `CN1CCC(n2cnc3ccc(-c4cccc(OCC(O)CN5CCc6ccccc6C5)c4)cc32)CC1` (stereo not shown) [Compound 221], for which the pIC50 was more than 7.00.

With `Cn1cnc2ccc(-c3cccc(OC[C@H](O)CN4CCc5ccccc5C4)c3)cc21` [Compound 174], the pIC50 is more than 7.00.

On to `COc1cc2c(cc1OC)CN(CC(O)COc1cccc(-c3ccc4ncn(C)c4c3)c1)CC2` (stereo not shown) [Compound 146], for which the negative logarithm of the IC50 (pIC50) was less than 4.40.

`Cn1ccc2ccc(-c3ccnc(NCC(O)CN4CCc5ccccc5C4)c3)cc21` (stereo not shown) [Compound 227]: the pIC50 is more than 7.00.

Turning to `Cn1ncc2ccc(-c3ccnc(NCC(O)CN4CCc5ccccc5C4)c3)cc21` (stereo not shown) [Compound 226], the pIC50 is more than 7.00.

For `COc1ccc(Cn2nccc2-c2ccc(OC[C@@H](O)CN3CCc4ccccc4C3)cc2)cc1` [Compound 38], the pIC50 is less than 4.40.

Regarding `Cn1cnc2ccc(-c3cccc(OCC(O)CN4Cc5ccccc5C(F)(F)C4)c3)cc21` (stereo not shown) [Compound 277], the negative logarithm of the IC50 (pIC50) is less than 5.00.

In the case of `Cn1cnc2ccc(-c3cncc(NCC(O)CN4CCc5ccccc5C4)c3)cc21` (stereo not shown) [Compound 199], the negative-log IC50 (pIC50) was more than 7.00.

`OC(COc1cccc(-c2ccc3ncn(C4CCNCC4)c3c2)c1)CN1CCc2ccccc2C1` (stereo not shown) [Compound 220]: the pIC50 was more than 7.00.

Turning to `Cn1cnc2ccc(-c3cccc(OCC(O)CN4CCc5ccccc5C4)c3)nc21` (stereo not shown) [Compound 189, 1-(3,4-dihydroisoquinolin-2(1H)-yl)-3-(3-(3-methyl-3H-imidazo[4,5-b]pyridin-5-yl)phenoxy)propan-2-ol], the pIC50 is more than 7.00.

Regarding `Cn1cc2ccc(-c3ccnc(NCC(O)CN4CCc5ccccc5C4)c3)cc2n1` (stereo not shown) [Compound 236], the pIC50 was more than 7.00.

Take `CN1CC(n2cnc3ccc(-c4ccnc(NCC(O)CN5CCc6ccccc6C5)c4)cc32)C1` (stereo not shown) [Compound 230]: the pIC50 is more than 7.00.

As to `OC(COc1ccc(C2CCCNC2)cc1)CN1CCc2ccccc2C1` (stereo not shown) [Compound 47], the pIC50 is more than 7.00.

The values are drawn from patent publication US9777008B2, “PRMT5 inhibitors and uses thereof” (Epizyme, Inc., priority 2012, dated 2017).
